The melting point is the temperature, or range, at which the solid turns liquid.

These results are taken from a melting point compilation (Tetko et al.; mined from patent text by program, amines drawn as free bases though some values may be those of a salt).

Structures are written as SMILES.

Compound `CC(C)Nc1c(-c2ccc(C#N)cc2)c(Cl)nc2ncnn12` came in with a melting point of 190 °C. With `CCN1CCN(CC(=O)NC2(c3ccc(Cl)cc3)C(=O)Nc3cc(C#N)cc(C(F)(F)F)c32)CC1` (configuration not stated), the melting point lay in the range of 260 to 262 °C. The result for `Cn1cc2c(nc(NC(=O)Nc3ccc(CC(=O)NCCCNC(=O)OC(C)(C)C)cc3)n3nc(-c4ccco4)nc23)n1` reads 198 to 205 °C. `CN1C(=O)C(NC(=O)CCc2ccc(Cl)cc2Cl)CC(=O)c2ccccc21` (configuration not stated): the melting point is 182 to 184 °C.

Consider `COc1cc2c(cc1F)C(=O)c1cc3ccccc3cc1C2=O`, for which the melting point is greater than 250 °C.

`CCN(C(C)=O)c1cccc(-c2ccc3nnc(N)n3n2)c1` came in with a melting point of 192 to 193 °C. The result for `CCOC(=O)COc1ccc(C(=O)Nc2ccccc2Oc2ccccc2-c2nnn[nH]2)cc1` reads 162 to 163 °C. Consider `CCOC(=O)c1cn(-c2ncns2)c2nc(Cl)c(F)cc2c1=O`, for which the melting point is 203 to 206 °C. The figure for `O=c1ncc(Br)cn1CC=CCl` is 114 to 116 °C. The result for `O=[N+]([O-])c1ccc(Oc2cccc3cccnc23)cc1` reads 165 to 166 °C; that for `COc1cccc(C2(C=O)CCNCC2)c1OC`, 123 °C; that for `O=C1c2ccccc2C(=O)N1CC(=CBr)c1ccccc1`, 128 to 129 °C.

The compound `CCOC(=O)C(CC)(Cc1ccc(OCCN2CCCCC2)cc1)S(=O)(=O)c1ccc(OC)cc1` (configuration not stated) yielded a melting point of 75 °C. Take `Cc1nn(C)c(C)c1CNC(=O)c1ccnc(N2CCN(Cc3ccc(F)cc3)C2=O)c1`: the melting point was in the range of 179 to 181 °C.

The compound `CON(C)C(=O)Nc1c(C(=O)c2occc2CO)[nH]c2cc(Cl)ccc12` displayed a melting point of 221 to 222 °C. In the case of `CS(=O)(=O)c1ccc(C(=O)Nc2ccc(Cl)c(-c3ccc(OCCCCCCC(=O)NO)cn3)c2)c(Cl)c1`, the melting point fell in the range of 140 to 145 °C.

`O=C(Nc1c(C(O)(C(F)(F)F)C(F)(F)F)ccc2ccccc12)c1cnc2ccccc2n1` had a melting point greater than 240 °C. The figure for `C1COCCOCCNCCOCC2(COCCN1)COC2` is 147 to 150 °C; for `CC(C(=O)N(C)C)n1ccc(-c2cc(Cl)ccc2Cl)n1` (configuration not stated) it is 73.5 to 76.5 °C.

`CC(=O)Nc1ccc(OC(=O)c2cc(OC(C)=O)ccc2OC(C)=O)cc1`: the melting point is 148 to 150 °C.

Regarding `Cc1nc(-n2cnn(CCOCc3ccc(F)cc3)c2=O)sc1C(=O)NCc1cccnc1`, the melting point fell in the range of 235 to 236 °C. `O=C(O)c1ccc(-c2cc3ccccc3[nH]c2=S)cc1` had a melting point greater than 300 °C.

As for `O=C(c1ccccc1)c1ccc(C(=O)c2ccc(C(=O)c3ccccc3)cc2)cc1`, the melting point lay in the range of 224 to 228 °C. `CCN1CCCC1CNC(=O)c1c(O)ccc(Br)c1O` (configuration not stated) displayed a melting point of 166 to 168 °C.

`O=C(CCl)Nc1ccc2c(c1NC(=O)C1CC1)C(=O)c1ccccc1C2=O` had a melting point of 191 to 192 °C.

Turning to `CCOc1cc2cc(CO)c(CO)c(-c3ccnc(Cl)c3)c2cc1OCC`, the melting point is 148 to 150 °C.

Regarding `O=C(Cc1ccncc1)N1CCC(=C2c3ccc(Cl)cc3CCc3c(On4nnc5ccccc54)ccnc32)CC1`, the melting point was 98.6 to 102 °C. The figure for `CCCCc1nc(CO)c(C(N)=O)n1Cc1ccc(-c2ccccc2C(=O)OC(C)(C)C)cc1` is 222 to 224 °C; for `CS(=O)(=O)c1ccc2c(c1)C(=O)CC2` it is 155 °C. The figure for `O=C(O)c1ccc(C=CC(=O)c2ccccc2)cc1` is 222 to 224 °C; for `COc1cc(OC)nc(Cc2ccccc2[N+](=O)[O-])n1` it is 92 to 93 °C. As to `COCCc1nc2c(N)nc3ccccc3c2n1CCCNC(=O)OC(C)(C)C`, the melting point lay within 174 to 176 °C.

Compound `N#Cc1c(N2CCN(Cc3ccccc3)CC2)nn2c(-c3ccncc3)ccnc12` yielded a melting point of 193 to 194 °C. On to `Cc1ccc(C2=C(c3ccc(S(C)(=O)=O)cc3)CCC2)cc1`, for which the melting point was 118 °C. The figure for `O=c1ccn(-c2ccc(N3CCOCC3)cc2)nc1-c1ccnn1-c1ccccc1` is 205 to 206 °C; for `COc1cc2c(c(Cl)c1Cl)C(=O)CC2` it is 154 to 156 °C. The result for `CCc1nc(NC)sc1C(=O)c1ccc(N)c([N+](=O)[O-])c1` reads 210 to 215 °C. In turn, `OCCNc1nc2ccccc2o1` came in with a melting point of 162 to 164 °C.

For the compound `CCc1[nH]nc2c1C(=O)c1c(NC(=O)NN3CCN(C)CC3)cccc1-2`, the melting point was in the range of 244 to 246 °C. For `CCOC(=O)Cc1ccc(C(=O)c2ccccc2)cc1N`, the melting point was in the range of 150 to 152 °C. The figure for `Nc1ccc(C(=O)Nc2ccc(-n3nc(C(F)(F)F)cc3C(F)(F)F)cc2)cc1` is greater than 240 °C; for `O=C1Oc2ccccc2Sc2ccccc21` it is 124 °C.

`CS(=O)(=O)c1ccc(Oc2cccc(C(=O)Nc3ccc(F)cc3)n2)cc1`: the melting point lay within 134 to 135 °C.

The compound `Cc1cc(C)cc(-c2cnn3c(-c4cccc(-c5nnn(Cc6cccnc6)n5)c4)ccnc23)c1` displayed a melting point of 73 °C. The figure for `CN(C)c1cc(N2C(=O)N3CCCC3(Cc3ccc(Br)cc3)C2=O)cc(Cl)n1` (configuration not stated) is 194 °C; for `COC(=O)CCCc1oc(Cl)nc1-c1ccc(Cl)cc1` it is 73 to 74 °C. `CCOC(=O)CCCCNc1ncc([N+](=O)[O-])cc1[N+](=O)[O-]` displayed a melting point of 70 to 72 °C. The figure for `Cc1c(-c2cnco2)[nH]c(=O)c2c1ccc1nc(Nc3c(Cl)cccc3Cl)n(C)c12` is greater than 300 °C; for `CCS(=O)(=O)c1ccc(-c2nc(-c3nc4cc(OC)cc(OC)c4c(=O)[nH]3)ccc2OCCO)cc1` it is 282 to 284 °C. The figure for `COC(=O)c1sc2ccccc2c1N=CN(C)C` is 73 to 74 °C; for `Oc1ccc(Br)cc1CNc1cc(Cl)cc(Cl)c1` it is 125 to 126 °C. In turn, `CCc1nn2ccc3c(c2c1C(C)=O)CCO3` came in with a melting point of 164 to 165 °C.

Regarding `Cn1ncc(C(=O)c2ccc(S(C)(=O)=O)c(C3=NC(C)(C)CO3)c2Cl)c1O`, the melting point was in the range of 132 to 135 °C. For `COc1ccc(N(C(=O)CN2C(=O)C(Cc3n[nH]c4c3CCCC4)C(=O)N(c3ccccc3)c3ccccc32)C(C)C)cc1` (configuration not stated), the melting point is 170 to 173 °C. `CCc1cc(-c2ccncc2)cc(CC)c1C(C(N)=O)C(N)=O` had a melting point of 184 to 186 °C. With `Cc1cc(N2CCN(CC(=O)c3ccc(NS(C)(=O)=O)cc3)CC2)ccn1`, the melting point lay in the range of 93 to 94 °C. Regarding `CCCCCC(=O)c1cnc2c(OC)cccc2c1Nc1ccccc1C`, the melting point lay within 94 to 96 °C.

Compound `CCCCCCCCCCCCCCCCCCC1(CO)OC(n2cccnc2=O)C(O)C1O` (configuration not stated) registered a melting point of 159 °C. The figure for `O=C1Cc2cccc(Oc3cccc4ccccc34)c2N1` is 158 to 160 °C; for `CS(=O)(=O)Oc1ccc(=O)[nH]n1` it is 148 °C. `CC(=O)c1ccc(-c2cc(C(C)(C)C)c(O)c(C(C)(C)C)c2)cc1` had a melting point of 144 to 145 °C. The figure for `O=C1c2ccc(OCCN3CCOCC3)cc2C(=O)c2ccc(OCCN3CCOCC3)cc21` is 200 to 201 °C.
